Measurements taken from article PMC12186844 (ACS Chemical Neuroscience, 2025).
Read-outs that look alike come from different tables or passages of the source.

Columns and labels:
SNAP-D2SR N52^1.50A = SNAP-D2SR N52^1.50A (Homo sapiens, UniProt P14416, N52A); experiment: functional cAMP assay, BRET biosensor; assay type: cell-based
Protocol: Flp-In-CHO cells stably coexpressing the CAMYEL biosensor and DRs were plated into white 96-well CulturPlates (Revvity) and grown overnight. The cells were equilibrated in Hank’s balanced salt solution (HBSS) at 37 °C (or 25 °C when indicated) before starting the experiment. The cells were costimulated with the agonists and 10 μM forskolin for the indicated time frames when the BRET readings were captured. Coelenterazine (Nanolight Technology, AZ) was added at a final concentration of 5 μM at least 3 min prior to measurement. […] Net BRET was determined by subtraction of the vehicle control coadded with 10 μM forskolin.
Dose–response curves were fitted using the following three-parameter equation: response=bottom+top−bottom/1+10^(logEC50−log[A]) 5 where top and bottom represent the maximal and minimal asymptote of the dose response curve, [A] is the molar concentration of the agonist, and EC50 is the molar concentration of the agonist required to give a response half-way between bottom and top.

D2LR = D2LR (Homo sapiens, UniProt P14416); experiment: whole cell [3H]raclopride binding assay
Protocol: The binding reaction was conducted in HBSS for 1 h at 37 °C. The adherent cells were washed two times with cold 0.9% NaCl solution, and 100 μL/well scintilation liquid was added to the plate. The remaining radioactivity was detected in a MicroBeta counter.

[1] = cooperativity with [3H]raclopride
[2] = cooperativity with aripiprazole
[3] = cooperativity with bromocriptine
[4] = orthosteric ligand [3H]raclopride
[5] = orthosteric ligand aripiprazole
[6] = orthosteric ligand bromocriptine
[7] = titration of D2 PAM2 vs [3H]raclopride
[8] = titration, cooperativity with [3H]raclopride

D2LR, sequence (P14416 whole entry): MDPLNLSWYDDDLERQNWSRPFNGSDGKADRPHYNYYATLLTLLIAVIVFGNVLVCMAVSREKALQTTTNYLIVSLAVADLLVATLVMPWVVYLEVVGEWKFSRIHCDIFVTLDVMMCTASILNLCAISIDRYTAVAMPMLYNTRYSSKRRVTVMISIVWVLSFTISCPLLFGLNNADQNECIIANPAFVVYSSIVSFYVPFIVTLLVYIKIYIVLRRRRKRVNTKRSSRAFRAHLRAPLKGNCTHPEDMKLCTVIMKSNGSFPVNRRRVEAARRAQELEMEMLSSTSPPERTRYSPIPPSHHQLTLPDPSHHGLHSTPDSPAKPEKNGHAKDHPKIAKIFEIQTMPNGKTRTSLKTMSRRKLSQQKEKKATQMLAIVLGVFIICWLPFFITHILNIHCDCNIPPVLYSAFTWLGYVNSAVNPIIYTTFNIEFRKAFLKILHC
SNAP-D2SR N52^1.50A, sequence (P14416 1-414 isoform P14416-2 N52A): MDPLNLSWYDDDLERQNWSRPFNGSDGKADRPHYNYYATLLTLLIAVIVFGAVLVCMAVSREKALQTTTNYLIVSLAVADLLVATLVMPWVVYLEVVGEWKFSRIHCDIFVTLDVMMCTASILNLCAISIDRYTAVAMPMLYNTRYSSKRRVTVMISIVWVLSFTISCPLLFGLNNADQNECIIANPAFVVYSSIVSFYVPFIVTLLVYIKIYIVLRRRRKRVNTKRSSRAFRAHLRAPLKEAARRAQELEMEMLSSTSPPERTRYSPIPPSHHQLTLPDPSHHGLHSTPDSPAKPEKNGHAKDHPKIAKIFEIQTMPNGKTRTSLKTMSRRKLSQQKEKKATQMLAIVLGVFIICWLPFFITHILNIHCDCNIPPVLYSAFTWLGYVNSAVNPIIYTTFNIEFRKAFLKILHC

SMILES: COc1cc(CO)c(F)cc1C(=O)n1ccc2c(F)cccc21 [D2 PAM2, [5-fluoro-4-(hydroxymethyl)-2-methoxyphenyl]-(4-fluoro-1H-indol-1-yl)methanone]
- D2 PAM2 log τ (SNAP-D2SR N52^1.50A): 0.23 ± 0.07
- D2 PAM2 pKB (SNAP-D2SR N52^1.50A): 4.89 ± 0.21
- D2 PAM2 τ (SNAP-D2SR N52^1.50A): 1.69
- Kb (SNAP-D2SR N52^1.50A; read-out: D2 PAM2 KB (converted)): 12.8 µM
- D2 PAM2 log αβ (SNAP-D2SR N52^1.50A; with DA): 1.18 ± 0.28
- D2 PAM2 αβ (SNAP-D2SR N52^1.50A; with DA): 15
- fold inhibition of [3H]raclopride affinity (D2LR): 2.43 fold
- Logα (D2LR; cooperativity with S-(3)-PPP): 0.40 ± 0.11
- α (D2LR; cooperativity with S-(3)-PPP): 2.5
- Logα (D2LR; [1]): -0.39 ± 0.12
- α (D2LR; [1]): −0.39
- α (D2LR; cooperativity with [3H]raclopride, listed as D2 PAM): 0.41
- Logα (D2LR; cooperativity with apomorphine): 1.05 ± 0.11
- α (D2LR; cooperativity with apomorphine): 11
- Logα (D2LR; [2]): 0.43 ± 0.10
- α (D2LR; [2]): 2.7
- Logα (D2LR; [3]): 0.27 ± 0.07
- α (D2LR; [3]): 1.9
- Logα (D2LR; cooperativity with dopamine): 1.33 ± 0.10
- α (D2LR; cooperativity with dopamine): 22
- α (D2LR; cooperativity with dopamine, listed as D2 PAM): 21
- Logα (D2LR; cooperativity with lisuride): 0.55 ± 0.04
- α (D2LR; cooperativity with lisuride): 3.5
- Logα (D2LR; cooperativity with pergolide): 1.24 ± 0.14
- α (D2LR; cooperativity with pergolide): 17
- Logα (D2LR; cooperativity with pramipexole): 1.21 ± 0.11
- α (D2LR; cooperativity with pramipexole): 16
- Logα (D2LR; cooperativity with ropirinole): 1.14 ± 0.11
- α (D2LR; cooperativity with ropirinole): 14
- Logα (D2LR; cooperativity with rotigotine): 1.37 ± 0.09
- α (D2LR; cooperativity with rotigotine): 23
- Kb (D2LR; orthosteric ligand S-(3)-PPP): 5.12 µM
- pKB (D2LR; orthosteric ligand S-(3)-PPP): 5.29 ± 0.05
- Kb (D2LR; [4]): 5.5 µM
- pKB (D2LR; [4]): 5.26 ± 0.10
- Kb (D2LR; orthosteric ligand apomorphine): 6.31 µM
- pKB (D2LR; orthosteric ligand apomorphine): 5.20 ± 0.10
- Kb (D2LR; [5]): 7.24 µM
- pKB (D2LR; [5]): 5.14 ± 0.04
- Kb (D2LR; [6]): 8.12 µM
- pKB (D2LR; [6]): 5.09 ± 0.13
- Kb (D2LR; orthosteric ligand dopamine): 5.5 µM
- pKB (D2LR; orthosteric ligand dopamine): 5.26 ± 0.10
- Kb (D2LR; orthosteric ligand lisuride): 5.62 µM
- pKB (D2LR; orthosteric ligand lisuride): 5.25 ± 0.07
- Kb (D2LR; orthosteric ligand pergolide): 8.32 µM
- pKB (D2LR; orthosteric ligand pergolide): 5.08 ± 0.10
- Kb (D2LR; orthosteric ligand pramipexole): 6.92 µM
- pKB (D2LR; orthosteric ligand pramipexole): 5.16 ± 0.11
- Kb (D2LR; orthosteric ligand ropirinole): 8.71 µM
- pKB (D2LR; orthosteric ligand ropirinole): 5.06 ± 0.06
- Kb (D2LR; orthosteric ligand rotigotine): 4.68 µM
- pKB (D2LR; orthosteric ligand rotigotine): 5.33 ± 0.14
- Kb (D2LR; read-out: Kb, affinity for the unoccupied receptor, DA competition, allosteric ternary complex model): 5.5 µM
- Kb (D2LR; [7]): 5.5 µM
- pKb (D2LR; [7]): 5.26
- Logα (D2LR; [8]): -0.37
- α (D2LR; [8]): 0.43
